Format in all cases: functional
The test system of assay [1] is Rattus norvegicus. As to the kind of experiment: Tested for edema suppression rate with respect to control value in adjuvant arthritis rat at a dose of 10 mg/Kg; Range = 31-40%.
For assay [2], the system named is Rattus norvegicus. In words: Tested for edema suppression rate with respect to control value in adjuvant arthritis rat at a dose of 50 mg/Kg; Range = 31-40%.
The subject of assay [3] is Rattus norvegicus. In words: Tested for edema suppression rate with respect to control value in adjuvant arthritis rat at a dose of 10 mg/Kg; Range = 41-50%.
For assay [4], the system named is Rattus norvegicus. As to the kind of experiment: Tested for edema suppression rate with respect to control value in adjuvant arthritis rat; Range = 0-20%.
Assay [5] deals with Rattus norvegicus. In words: Tested for edema suppression rate with respect to control value in adjuvant arthritis rat at a dose of 50 mg/Kg; Range = 21-30%.
The test system of assay [6] is Rattus norvegicus. In words: Tested for edema suppression rate with respect to control value in adjuvant arthritis rat at a dose of 10 mg/Kg; Range = 21-30%.
Assay [7] deals with Rattus norvegicus. In words: Tested for edema suppression rate with respect to control value in adjuvant arthritis rat at a dose of 50 mg/Kg; Range = >50%.

Where only a bound is given, the exact number is not on record here.

For orientation: inhibition in vivo means the share of the control response that was lost under treatment. What is called Inhibition is the percentage by which the read-out fell short of the control.

In the case of `O=C(O)c1cccc2c1NC(c1ccccc1)CO2` (stereo unspecified), in the assay with Rattus norvegicus [1], the inhibition in vivo at 10 mg/kg amounted to 40%. `CS(=O)(=O)Nc1cc2c(c(C(=O)O)c1)NCCCC2`: in the assay on Rattus norvegicus [2], the inhibition in vivo at 50 mg/kg turned out to be 40%. On to `O=C(O)Cc1cc2c(c(C(=O)O)c1)NCCC2`, for which the inhibition in vivo at 10 mg/kg in the assay on Rattus norvegicus [3] worked out at 50%. On to `O=C(O)c1cc([N+](=O)[O-])cc2c1NCCO2`, for which the Inhibition with Rattus norvegicus [4] is recorded as 20%. Turning to `O=C(O)c1cc([N+](=O)[O-])cc2c1NCC2`, in the assay on Rattus norvegicus [4], the Inhibition was 20%. With `O=C(O)c1cc2c(c(C(=O)O)c1)NCCC2`, the inhibition in vivo at 10 mg/kg in the assay with Rattus norvegicus [1] was 40%. Turning to `O=C(O)c1cc(Cl)cc2c1NCCS2`, the Inhibition in the assay with Rattus norvegicus [4] amounted to 20%. `O=C(O)c1cc([N+](=O)[O-])cc2c1NC(c1ccccc1)CC2` (stereo unspecified): in the assay on Rattus norvegicus [4], the Inhibition is reported as 20%. On the same count and under the same terms, in the case of `O=C(O)c1cc([N+](=O)[O-])ccc1NCc1ccccc1` it was 20%. As for `O=C(O)c1cc(Br)c(Cl)c2c1NCCO2`, the inhibition in vivo at 50 mg/kg in the assay on Rattus norvegicus [5] amounted to 30%. On to `O=C(O)c1cc([N+](=O)[O-])cc2c1NCCCC2`, for which the inhibition in vivo at 10 mg/kg in the assay on Rattus norvegicus [6] was 30%.

Consider `O=C(O)c1cc([N+](=O)[O-])cc2c1NCCC2`, for which the inhibition in vivo at 50 mg/kg with Rattus norvegicus [7] was more than 50%. As for `O=C(O)c1cc2c(c(C(=O)O)c1)NCCS2`, the Inhibition with Rattus norvegicus [4] is 20%. Take `CNc1ccc([N+](=O)[O-])cc1C(=O)O`: the inhibition in vivo at 50 mg/kg in the assay with Rattus norvegicus [2] was 40%. Regarding `Nc1ccc(Cl)cc1C(=O)O`, the Inhibition with Rattus norvegicus [4] worked out at 20%.

As to `Nc1ccc([N+](=O)[O-])cc1C(=O)O`, the inhibition in vivo at 10 mg/kg in the assay with Rattus norvegicus [6] came to 30%.
